The C3SDB collision cross section collection
Structures can show the parent of a compound that is named as a salt.

details: [M+H-H2O]+; instrument: TW; calibrated with polyalanine and drug standards

Structure (SMILES) | collision cross section (N2)
Cc1cc2c(C(C)C)c(O)c(O)c(C=O)c2c(O)c1-c1c(C)cc2c(C(C)C)c(O)c(O)c(C=O)c2c1O [GOSSYPOL] | 228.1 Å²

same assay, conditions: [M+H]+; instrument: TW; calibrated with polyalanine and drug standards

Structure (SMILES) | collision cross section (N2)
Cc1ccc2c(c1)CC[C@H]1CC(=O)CC[C@]21C [13-METHYL-4,4-BISNOR-8,11,13-PODOCARPATRIEN-3-ONE] | 148.1 Å²
C[C@@H]1CC[C@H]2C(C)(C)[C@H]3C[C@@]12CC[C@@]3(C)O [CEDROL] | 145.9 Å²
CN(C)c1nc(N(C)C)nc(N(C)C)n1 [ALTRETAMINE] | 145.6 Å²
CCOc1nc2cccc(C(=O)OC(C)OC(=O)OC3CCCCC3)c2n1Cc1ccc(-c2ccccc2-c2nn[nH]n2)cc1 (centres undefined) [CANDESARTAN CILEXTIL] | 241.5 Å²
COC(=O)C[C@H]1C(C)(C)C(=O)[C@@H]2CC3C4=CC(=O)O[C@@H](c5ccoc5)[C@]4(C)CCC3[C@@]1(C)C2=O (some centres undefined) [CARAPIN] | 206.1 Å²
C/C(=C(\CCOP(=O)(O)O)SC(=O)c1ccccc1)N(C=O)Cc1cnc(C)nc1N [BENFOTIAMINE] | 192.7 Å²
CC(=O)CCCCn1c(=O)c2c(ncn2C)n(C)c1=O [PENTOXIFYLLINE] | 158.5 Å²
COc1ccccc1OCCNCC(O)COc1cccc2[nH]c3ccccc3c12 (centres undefined) [CARVEDILOL] | 189.1 Å²
COC(=O)N=N/C=C1\C=[N+]([O-])c2ccccc2N1O [CARBADOX] | 153.9 Å²
CC(=O)Nc1nnc(S(N)(=O)=O)s1 [ACETAZOLAMIDE] | 140.7 Å²
O=c1c(O)c(-c2ccccc2)oc2cc(O)ccc12 [3,7-DIHYDROXYFLAVONE] | 152.1 Å²
CC1=CC(=O)c2c(O)cccc2C1=O [PLUMBAGIN] | 124.1 Å²
COc1cc(O)c(C(=O)/C=C/c2ccc(O)c(OC)c2)c(OC)c1 [2',4-DIHYDROXY-3,4',6'-TRIMETHOXYCHALCONE] | 177.5 Å²
N[C@@H](Cc1ccc(N(CCCl)CCCl)cc1)C(=O)O [MELPHALAN] | 168.7 Å²
O=c1c(-c2ccccc2)coc2cc(O)cc(O)c12 [5,7-DIHYDROXYISOFLAVONE] | 152.3 Å²
CC(C)c1ccc2c(c1O)CC[C@H]1C3=C(CC[C@]21C)C(=O)OC3 [TRIPTOPHENOLIDE] | 179.4 Å²
c1ccc2c(c1)[nH]c1cnccc12 [NORHARMAN] | 132.2 Å²
CC[C@H]1[C@@H]2C[C@H]3[C@@H]4N(C)c5ccccc5[C@]45C[C@@H]([C@H]2[C@H]5O)N3[C@@H]1O [AJMALINE] | 172.9 Å²
COc1ccc(C(=O)N2CCCC2=O)cc1 [ANIRACETAM] | 146.6 Å²
CC(C)NCC(O)COc1ccc(CC(N)=O)cc1 (centres undefined) [ATENOLOL] | 159 Å²
COc1cc(OC)c(OC)cc1C=O [ASARYLALDEHYDE] | 138.3 Å²
CC(NC(C)(C)C)C(=O)c1cccc(Cl)c1 (centres undefined) [BUPROPION] | 157.5 Å²
CN1C2CCC1CC(OC(c1ccccc1)c1ccccc1N)C2 (centres undefined) [AMINOBENZTROPINE] | 180.6 Å²
O=C(O)CCCc1ccc(N(CCCl)CCCl)cc1 [CHLORAMBUCIL] | 168.7 Å²
COc1cc2c(c(OC)c1OC)-c1ccc(O)c(=O)cc1[C@@H](N)CC2 [TRIMETHYLCOLCHICINIC ACID] | 181 Å²
C[C@H]1C(=O)O[C@@H]2CCN3CC=C(COC(=O)[C@](C)(O)[C@]1(C)O)[C@H]23 [MONOCROTALINE] | 172.9 Å²
CC1(C)CC2C1CC[C@]1(C)CCC3C(C(=O)O)CC(=O)O[C@@]32C1 (some centres undefined) [3-HYDROXY-4-(SUCCIN-2-YL)-CARYOLANE delta-LACTONE] | 174.9 Å²
CC1(C)C(=O)[C@@H]2C[C@@]3(O)C4=CC(=O)O[C@@H](c5ccoc5)[C@]4(C)CCC3C(C)(C2=O)[C@H]1CC(=O)O (some centres undefined) [8-HYDROXYCARAPINIC ACID] | 202.9 Å²

Other lines, results leading:

collision cross section (N2) | Structure (SMILES)
192 Å² | OCCN1CCN(CCCN2c3ccccc3Sc3ccc(Cl)cc32)CC1 [PERPHENAZINE]
155.2 Å² | Cc1nnc(NS(=O)(=O)c2ccc(N)cc2)s1 [SULFAMETHIZOLE]
134.7 Å² | CC(C)CCCC(C)N (centres undefined) [OCTODRINE]
178.5 Å² | CC1=C(C(=O)O)N2C(=O)[C@@H](NC(=O)[C@H](N)c3ccccc3)[C@H]2SC1 [CEPHALEXIN]
194 Å² | CCCCC(CC)CN1CN(CC(CC)CCCC)CC(C)(N)C1 (centres undefined) [HEXETIDINE]
146.7 Å² | CC(C)(CO)[C@@H](O)C(=O)NCCC(=O)[O-] [PANTOTHENIC ACID(d) Na salt]
178.9 Å² | CN(C)CCCC1(c2ccc(F)cc2)OCc2cc(C#N)ccc21 (centres undefined) [CITALOPRAM]
227 Å² | NC(=O)c1ccc[n+]([C@@H]2O[C@H](COP(=O)([O-])OP(=O)(O)OC[C@H]3O[C@@H](n4cnc5c(N)ncnc54)[C@H](O)[C@@H]3O)[C@@H](O)[C@H]2O)c1 [NADIDE]
208.4 Å² | C[C@@H]1CC[C@@]2(OC1)O[C@H]1C[C@H]3[C@@H]4CC=C5C[C@@H](O)CC[C@]5(C)[C@H]4CC[C@]3(C)[C@H]1[C@@H]2C [DIOSGENIN]
222.5 Å² | CC(C)(CO)[C@@H](O)C(=O)NCCC(=O)NCCSSCCNC(=O)CCNC(=O)[C@H](O)C(C)(C)CO [PANTETHINE]
190.3 Å² | COc1ccc(-c2c(O)c3c(OC)c4c(cc3oc2=O)OC(C)(C)C=C4)cc1 [ROBUSTIC ACID]
180.4 Å² | CCN(CC)CCNc1ccc(CO)c2sc3ccccc3c(=O)c12 [HYCANTHONE]
276.1 Å² | CC[C@H]1OC(=O)[C@H](C)[C@@H](O[C@H]2C[C@@](C)(OC)[C@@H](O)[C@H](C)O2)[C@H](C)[C@@H](O[C@@H]2O[C@H](C)C[C@H](N(C)C)[C@H]2O)[C@](C)(O)C[C@@H](C)/C(=N\OCOCCOC)[C@H](C)[C@@H](O)[C@]1(C)O [ROXITHROMYCIN]
225 Å² | CCCc1nc(C(C)(C)O)c(C(=O)OCc2oc(=O)oc2C)n1Cc1ccc(-c2ccccc2-c2nn[nH]n2)cc1 [OLMESARTAN MEDOXOMIL]
160.6 Å² | O=C1CC(c2ccc(O)cc2)Oc2cc(O)cc(O)c21 (centres undefined) [NARINGENIN]
138.4 Å² | O=C(O)c1ccccc1OP(=O)(O)O [FOSFOSAL]
196.4 Å² | O=c1c(-c2ccc(O)cc2)coc2c([C@@H]3O[C@H](CO)[C@@H](O)[C@H](O)[C@H]3O)c(O)ccc12 [PUERARIN]
186.1 Å² | Cc1ccc(-c2cc(C(F)(F)F)nn2-c2ccc(S(N)(=O)=O)cc2)cc1 [CELECOXIB]
162.8 Å² | CNCCCC1c2ccccc2C=Cc2ccccc21 [PROTRYPTYLINE HYDROCHLORIDE]

collision cross section (N2) | Structure (SMILES)
158.2 Å² | Nc1ccc(S(=O)(=O)Nc2ccc(Cl)nn2)cc1 [SULFACHLORPYRIDAZINE]
138.8 Å² | N[C@@H](C(=O)O)[C@@H](O)[C@H](O)[C@H](O)CO [GLUCOSAMINIC ACID]
159.4 Å² | COc1ccc(NS(=O)(=O)c2ccc(N)cc2)nn1 [SULFAMETHOXYPYRIDAZINE]
142.5 Å² | N[C@@H](COCc1ccccc1)C(=O)O [O-BENZYL-l-SERINE]
162.7 Å² | COc1ccc2c(c1)O[C@H]1c3ccc(OC)cc3OC[C@@H]21 [HOMOPTEROCARPIN]
179.9 Å² | CC(=O)[C@@]1(O)CC[C@H]2[C@@H]3CCC4=CC(=O)CC[C@]4(C)[C@H]3CC[C@@]21C [HYDROXYPROGESTERONE]
125.5 Å² | S=c1nc[nH]c2nc[nH]c12 [MERCAPTOPURINE]
156.3 Å² | Cc1ccnc(NS(=O)(=O)c2ccc(N)cc2)n1 [SULFAMERAZINE]
170.8 Å² | Cc1cc(NC(=O)C2=C(O)c3ccccc3S(=O)(=O)N2C)no1 [ISOXICAM]
230.2 Å² | CC(=O)Oc1c(C)c(C)c2c(c1C)CCC(C)(CCCC(C)CCCC(C)CCCC(C)C)O2 (stereo not drawn) [alpha-TOCHOPHERYL ACETATE]
159.5 Å² | COc1cc(NS(=O)(=O)c2ccc(N)cc2)ncn1 [SULFAMONOMETHOXINE]
213.9 Å² | COc1cc2c(cc1OC)Cc1cc(OC)c(OC)cc1Cc1cc(OC)c(OC)cc1C2 [CYCLOVERATRYLENE]
148 Å² | COc1ccc2cc(CCC(C)=O)ccc2c1 [NABUMETONE]
205.9 Å² | COc1ccc(Cl)cc1C(=O)NCCc1ccc(S(=O)(=O)NC(=O)NC2CCCCC2)cc1 [GLYBURIDE]
144.5 Å² | O=C(O)c1ccccc1Nc1ccccc1 [N-PHENYLANTHRANILIC ACID]
141 Å² | OCCN1C[C@H](O)[C@@H](O)[C@H](O)[C@H]1CO [MIGLITOL]
206.1 Å² | O=C(O[C@@H]1Cc2c(O)cc(O)cc2O[C@@H]1c1cc(O)c(O)c(O)c1)c1cc(O)c(O)c(O)c1 [EPIGALLOCATECHIN-3-MONOGALLATE]
124.4 Å² | O=C(O)C(O)C(O)C(=O)O (centres undefined) [TARTARIC ACID]

same assay, conditions: [M+Na]+; instrument: TW; calibrated with polyalanine and drug standards

Structure (SMILES) | collision cross section (N2)
OC[C@H]1O[C@@H](Oc2ccc(O)cc2)[C@H](O)[C@@H](O)[C@@H]1O [ARBUTIN] | 164.4 Å²
CC(=O)N[C@@H]1[C@@H](O)[C@H](O)[C@@H](CO)O[C@H]1O [ACETYLGLUCOSAMINE] | 153.5 Å²

same assay, conditions: [M]+; instrument: TW; calibrated with polyalanine and drug standards

Structure (SMILES) | collision cross section (N2)
CCCCCCCCCCCCCC[N+](C)(C)Cc1ccccc1 [BENZALKONIUM CHLORIDE C14] | 205.7 Å²
